Read-outs that look alike come from different tables or passages of the source.
Columns and labels:
[1] = Pharmacokinetics and relative bioavailability after a single oral dose (two liquid formulations, powder in capsule); type: in vivo, male Beagle dogs; details: male, Beagle, dog, plasma, po; for AUC(0-t): read-out: AUC0-TLast; for CL/F: read-out: CL/F (converted); for Vd/F: read-out: Vz/F
Description: The purpose of the study is to dose two suspension formulations of Compound 2 at two dose levels by gavage to Beagle dogs and to collect blood samples for the determination of plasma concentrations, derivation of pharmacokinetic parameters and to determine the relative bioavailability of the two suspension formulations. The pharmacokinetics of Compound 2 would be evaluated following oral administration in capsules and the relative bioavailability of this dosage form to the oral liquid formulations was determined.
This study involves the dosing of the test item by the oral route over three periods separated by a 7 days washout period as outlined in Table 43, Table 44, and Table 45. The third period of the study outlined in Table 45 is considered to be optional and will only be performed at the Sponsor's request. Prior to the day of dosing, food will be removed from the dogs at 4:00 pm and reintroduced 2 hrs after dosing.
For oral administration of the formulations, the test item was administered via a stomach tube followed by the administration of 10 mL of tap water. For oral administration of capsules, the capsule was placed on the back of the tongue to encourage swallowing followed by administration of 10 mL of tap water. The oral cavity was then be inspected to make sure the capsule was swallowed. The actual volume of dosing formulation administered will be calculated based on the animal's most recently scheduled body weight.
The pharmacokinetic parameters for Compound 2 in solution as Formulation #1 (Table 43) and Formulation #2 (Table 44) along with data for the dosing of Compound 2 powder in capsule (Table 45) are presented in Table 46.

[2] = tested on: ACVR1 mutant (G328V mutated cell line) and wild type DIPG cell lines; assay: Proliferation assay against DIPG cell lines; type: cell-based; details: ACVR1 G328V mutant vs wild type DIPG cell lines
Experimental: Compound 2 was tested in a proliferation assay against ACVR1 mutant (G328V mutated cell line) and wild type DIPG cell lines in vitro.

[3] = 2 mg/kg, Formulation #1 (Table 43), 2 mg/kg oral, male Beagle dogs, individual dog
[4] = 2 mg/kg, Formulation #1 (Table 43), 2 mg/kg oral, male Beagle dogs, Mean
[5] = 2 mg/kg, Formulation #2 (Table 44), 2 mg/kg oral, male Beagle dogs, Mean
[6] = 2 mg/kg, Formulation #2 (Table 44), 2 mg/kg oral, male Beagle dogs, individual dog
[7] = 2 mg/kg, Powder in Capsule (Table 45), 2 mg/kg oral, male Beagle dogs, Mean
[8] = 2 mg/kg, Powder in Capsule (Table 45), 2 mg/kg oral, male Beagle dogs, individual dog
[9] = 5 mg/kg, Formulation #1 (Table 43), 5 mg/kg oral, male Beagle dogs, Mean
[10] = 5 mg/kg, Formulation #1 (Table 43), 5 mg/kg oral, male Beagle dogs, individual dog
[11] = 5 mg/kg, Formulation #2 (Table 44), 5 mg/kg oral, male Beagle dogs, Mean
[12] = 5 mg/kg, Formulation #2 (Table 44), 5 mg/kg oral, male Beagle dogs, individual dog
[13] = 5 mg/kg, Powder in Capsule (Table 45), 5 mg/kg oral, male Beagle dogs, Mean
[14] = 5 mg/kg, Powder in Capsule (Table 45), 5 mg/kg oral, male Beagle dogs, individual dog

SMILES: COc1cc(Nc2nccc(Nc3cccnc3-c3ccccn3)n2)ccc1N1CCN(C)CC1 [Compound 2, N^4-(2,2′-bipyridin-3-yl)-N^2-(3-methoxy-4-(4-methylpiperazin-1-yl)phenyl)pyrimidine-2,4-diamine]
- Tmax [1, 3]: 5 h
- half-life [1, 3]: 6 h
- AUC(0-t) [1, 4]: 70 ng·h/mL
- CL/F [1, 4]: 483 mL/min/kg
- Cmax ([1]; 2 mg/kg, Formulation #1 (Table 43), 2 mg/kg oral, male Beagle dogs, Mean, read-out: Cmax): 6.78 ng/mL
- Vd/F [1, 4]: 237 L/kg
- AUC(0-t) [1, 3]: 45 ng·h/mL
- CL/F [1, 3]: 683 mL/min/kg
- Cmax ([1]; 2 mg/kg, Formulation #1 (Table 43), 2 mg/kg oral, male Beagle dogs, individual dog, read-out: Cmax): 4.37 ng/mL
- AUC(0-inf) [1, 5]: 105 ng·h/mL
- Tmax [1, 5]: 4.7 h
- half-life [1, 5]: 4.7 h
- Tmax [1, 6]: 4 h
- half-life [1, 6]: 3.9 h
- AUC(0-t) [1, 5]: 102 ng·h/mL
- CL/F [1, 5]: 400 mL/min/kg
- Cmax ([1]; 2 mg/kg, Formulation #2 (Table 44), 2 mg/kg oral, male Beagle dogs, Mean, read-out: Cmax): 11.6 ng/mL
- Vd/F [1, 5]: 177 L/kg
- AUC(0-inf) [1, 7]: 90 ng·h/mL
- Tmax [1, 7]: 3 h
- half-life [1, 7]: 2.3 h
- Tmax [1, 8]: 3 h
- half-life [1, 8]: 2.4 h
- AUC(0-t) [1, 7]: 71 ng·h/mL
- CL/F [1, 7]: 417 mL/min/kg
- Cmax ([1]; 2 mg/kg, Powder in Capsule (Table 45), 2 mg/kg oral, male Beagle dogs, Mean, read-out: Cmax): 14.9 ng/mL
- Vd/F [1, 7]: 85 L/kg
- Cmax ([1]; 5 mg/kg, 5 mg/kg oral, range across Formulation #1, #2 and powder in capsules, read-out: mean Cmax): 22.2 to 27.8 ng/mL
- AUC(0-inf) [1, 9]: 294 ng·h/mL
- Tmax [1, 9]: 3.7 h
- half-life [1, 9]: 5.1 h
- Tmax [1, 10]: 4 h
- half-life [1, 10]: 6 h
- AUC(0-t) [1, 9]: 280 ng·h/mL
- CL/F [1, 9]: 333 mL/min/kg
- Cmax ([1]; 5 mg/kg, Formulation #1 (Table 43), 5 mg/kg oral, male Beagle dogs, Mean, read-out: Cmax): 27.8 ng/mL
- Vd/F [1, 9]: 147 L/kg
- AUC(0-inf) [1, 11]: 221 ng·h/mL
- Tmax [1, 11]: 3.7 h
- half-life [1, 11]: 4.9 h
- Tmax [1, 12]: 3 h
- half-life [1, 12]: 5.4 h
- AUC(0-t) [1, 11]: 211 ng·h/mL
- CL/F [1, 11]: 450 mL/min/kg
- Cmax ([1]; 5 mg/kg, Formulation #2 (Table 44), 5 mg/kg oral, male Beagle dogs, Mean, read-out: Cmax): 22.2 ng/mL
- Vd/F [1, 11]: 188 L/kg
- AUC(0-inf) [1, 13]: 160 ng·h/mL
- Tmax [1, 13]: 4.3 h
- half-life [1, 13]: 3.1 h
- AUC(0-inf) [1, 14]: 215 ng·h/mL
- Tmax [1, 14]: 3 h
- half-life [1, 14]: 2.7 h
- AUC(0-t) [1, 13]: 146 ng·h/mL
- CL/F [1, 13]: 550 mL/min/kg
- Cmax ([1]; 5 mg/kg, Powder in Capsule (Table 45), 5 mg/kg oral, male Beagle dogs, Mean, read-out: Cmax): 25.6 ng/mL
- Vd/F [1, 13]: 147 L/kg
- AUC(0-t) [1, 14]: 191 ng·h/mL
- CL/F [1, 14]: 383 mL/min/kg
- Tmax ([1]; 5 mg/kg, beagle dogs, range across formulations at both doses (2 and 5 mg/kg)): 3 to 4.7 h
- Activity in proliferation assay [2]: selective activity against the mutated cell line

From patent publication US11040038B2, “Methods for treating diseases associated with abnormal ACVR1 expression and ACVR1 inhibitors for use in the same” (Sumitomo Dainippon Pharma Oncology, Inc., priority 2018, dated 2021)
